{"source": "patent US4980377A", "about": "“1-(aminophenyl)-2-aminopropanone derivatives” (Laboratoire L. Lafon, priority 1984, dated 1990)", "key": {"mice [1]": {"tested_on": "mice", "test": "Interaction with apomorphine in mice", "format": "in vivo, mouse", "conditions": "i.p.", "method": "Groups of 6 mice receive CRL 41 153 0.5 hour before the subcutaneous injection of 1 or 16 mg/kg of apomorphine."}, "immunity": {"tested_on": "immunity", "test": "Immunological study (overall)", "conditions": "in vivo; dihydrochloride"}, "mice [2]": {"tested_on": "mice", "test": "Interaction with oxotremorine", "format": "in vivo, mouse", "conditions": "i.p.", "method": "CRL 41 153 is administered to groups of 6 mice 0.5 hour before the intraperitoneal injection of 0.5 mg/kg of oxotremorine."}, "[3]": {"tested_on": "gravid White New Zealand female rabbits", "test": "Teratogenicity in gravid White New Zealand rabbits", "format": "in vivo, rabbit", "conditions": "day 5 to day 18 of gestation; for Affected foetuses, %: normal limit 1.5%", "in_short": "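Fetuses harvested by cesarean on gestation day 29 were scored for number and for any malformation (limb blockade, anury, tail or skull defects, exencephaly).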"}, "[4]": {"test": "pH of solutions in distilled water", "format": "physicochemical", "method": "The neuropsychopharmacological study was undertaken according to the procedures described above for CRL 41 153, CRL 41 213 being adminstered intraperitoneally, in solution in distilled water, in a volume of 20 ml/kg to male mice and a volume of 5 ml/kg to male rats, and the pH of the injected solution varying with the concentration of CRL 41 213 according to the data given in Table II below."}, "mice [5]": {"tested_on": "mice", "test": "Spontaneous motility", "format": "in vivo, mouse", "conditions": "i.p.", "method": "0.5 hour after they have received CRL 41 153, the mice (6 per dose, 12 control animals) are placed in an actimeter, where their motility is recorded for 30 minutes."}, "[6]": {"tested_on": "cellular and humoral immunity", "test": "Delayed hypersensitivity to the red blood corpuscles of sheep", "format": "in vivo"}, "[7]": {"tested_on": "cellular and humoral immunity", "test": "Test for cells forming lysis areas", "conditions": "in vivo"}, "CNS": {"tested_on": "CNS", "test": "Neuropsychopharmacological profile as a whole", "format": "in vivo, mice and rats", "method": "(§1) In the neuropsychopharmacological study which follows, a solution of CRL 41 153 in distilled water (pH 1.5) was administered intraperitoneally in a volume of 20 ml/kg to male mice and 5 ml/kg to male rats."}, "rats [8]": {"tested_on": "rats", "test": "Overall behavior and reactivities in rats", "format": "in vivo, rat", "conditions": "dose not stated", "method": "as §1\n(§2) Groups of three animals are observed before and then 0.25 hour, 0.50 hour, 1 hour, 2 hours, 3 hours and 24 hours after the administration of CRL 41 153."}, "man": {"tested_on": "man", "test": "Clinical study: treatment of depressions", "format": "in vivo, human"}, "mice [9]": {"tested_on": "mice", "test": "Behavioral despair", "format": "in vivo, mouse", "conditions": "forcibly immersed mice, i.p.", "excerpt": "Half an hour after they have received CRL 41 153, groups of 6 mice are placed in a beaker filled with water to a height of 6 cm. The total period of immobility between the 2nd and 6th minutes following immersion is noted."}, "dogs": {"tested_on": "dogs", "test": "Cardiovascular study in anesthetized dogs", "format": "in vivo, dog", "in_short": "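Measurements: blood pressure, heart rate, femoral and vertebral arterial flow, rectal temperature, skin colour, and for CRL 41 194 bile colour via bile-duct catheter. Doses rose stepwise 0.1–10 mg/kg intraduodenally in solution under nembutal anaesthesia; two dogs got CRL 41 194, four CRL 41 221.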"}, "rats [10]": {"tested_on": "rats", "test": "Interaction with amphetamine", "format": "in vivo, rat", "conditions": "i.p.", "method": "Amphetamine (2 mg/kg) is injected intraperitoneally into groups of 6 rats 30 minutes after the administration of CRL 41 153. […] 4 mg/kg and 16 mg/kg, CRL 41 153 potentiates the intensity and duration of the stereotypies induced by amphetamine."}, "mice [11]": {"tested_on": "mice", "test": "Interaction with barbital", "format": "in vivo, mouse", "conditions": "i.p., barbital 220 mg/kg", "method": "Half an hour after the administration of CRL 41 153, groups of 10 mice receive an intraperitoneal injection of barbital (220 mg/kg)."}, "mice [12]": {"tested_on": "mice", "test": "Motility reduced by hypoxic aggression", "format": "in vivo, mouse", "conditions": "i.p.", "method": "Half an hour after they have received CRL 41 153, the mice (10 per dose, 20 control animals) are subjected to acute hypobaric anoxia [pressure reduction of 600 mm Hg (i.e. about 8×10^4 Pa) in 90 seconds; release of vacuum in 45 seconds] and are then placed in an actimeter, where their motility is recorded for 10 minutes."}, "mice [13]": {"tested_on": "mice", "test": "Motility reduced by habituation to the enclosure", "format": "in vivo, mouse", "conditions": "i.p.", "method": "After they have stayed In the actimeters for 18 hours, (he mice (6 per dose, 12 control animals) receive CRL 41 153. They are immediately returned to their respective enclosures and, half an hour later, their motility is recorded for 30 minutes."}, "rats [14]": {"tested_on": "rats", "test": "Interaction with apomorphine in rats", "format": "in vivo, rat", "conditions": "i.p.", "method": "CRL 41 153 is administered to groups of 6 rats 0.5 hour before the subcutaneous injection of 0.5 mg/kg of apomorphine."}, "mice [15]": {"tested_on": "mice", "test": "Interaction with reserpine", "format": "in vivo, mouse", "conditions": "i.p.", "method": "Four hours after the intraperitoneal injection of 2.5 mg/kg of reserpine, groups of 6 mice receive CRL 41 153."}, "mice [16]": {"tested_on": "mice", "test": "Overall behavior and reactivities in mice", "format": "in vivo, mouse", "conditions": "dose not stated", "method": "as §1, §2"}, "[17]": {"conditions": "anesthetized dogs, intraduodenal"}}, "note": "“Also recorded” adds a separate entry of the source. Where a name gives a salt, the structure may show the parent alone.", "data": [{"smiles": "CC(C(=O)c1ccc(N)cc1)N1CCOCC1", "note": "(stereo not shown) [CRL 41 237, 1-(4-aminophenyl)-2-morpholinopropanone dihydrochloride]", "values": [{"measurement": "Effect on hypothermia induced by apomorphine", "setting": "mice [1]", "value": "antagonism of the hypothermia"}, {"measurement": "Immunological effect (overall)", "setting": "immunity", "value": "immunostimulant or immunomodulating effects; also recorded: immunostimulant effects"}, {"measurement": "Effect on hypothermic action of oxotremorine", "setting": "mice [2]", "value": "antagonism of the hypothermia"}, {"measurement": "Effect on trembling induced by oxotremorine", "setting": "mice [2]", "value": "antagonism of the trembling induced by oxotremorine"}, {"measurement": "Affected foetuses, number", "setting": "[3]; 5 mg/kg daily", "value": 0}, {"measurement": "Total foetuses (live)", "setting": "[3]; 5 mg/kg daily", "value": 91}, {"measurement": "Affected foetuses, %", "setting": "[3]; 5 mg/kg daily", "value": 0, "unit": "%"}, {"measurement": "Affected foetuses, number", "setting": "[3]; 10 mg/kg daily", "value": 1}, {"measurement": "Total foetuses (live)", "setting": "[3]; 10 mg/kg daily", "value": 96}, {"measurement": "Affected foetuses, %", "setting": "[3]; 10 mg/kg daily", "value": 1.04, "unit": "%"}, {"measurement": "Affected foetuses, number", "setting": "[3]; 50 mg/kg daily", "value": 1}, {"measurement": "Total foetuses (live)", "setting": "[3]; 50 mg/kg daily", "value": 88}, {"measurement": "Affected foetuses, %", "setting": "[3]; 50 mg/kg daily", "value": 1.13, "unit": "%"}, {"measurement": "pH", "setting": "[4]; 0.1 g/liter in distilled water", "value": 5.0}, {"measurement": "pH", "setting": "[4]; 0.2 g/liter in distilled water", "value": 4.5}, {"measurement": "pH", "setting": "[4]; 0.4 g/liter in distilled water", "value": 4.0}, {"measurement": "pH", "setting": "[4]; 0.8 g/liter in distilled water", "value": 3.5}, {"measurement": "pH", "setting": "[4]; 1.6 g/liter in distilled water", "value": 3.0}, {"measurement": "pH", "setting": "[4]; 3.2 g/liter in distilled water", "value": 2.5}, {"measurement": "pH", "setting": "[4]; 6.4 g/liter in distilled water", "value": 2.0}, {"measurement": "pH", "setting": "[4]; 25 g/liter in distilled water", "value": 1.5}, {"measurement": "pH", "setting": "[4]; 50 g/liter in distilled water", "value": 1.0}, {"measurement": "pH", "setting": "[4]; ≤0.05 g/liter in distilled water", "value": 5.5}, {"measurement": "Spontaneous motor activity", "setting": "mice [5]", "value": "an increase in the spontaneous motor activity of mice"}, {"measurement": "Activity on the delayed hypersensitivity reaction", "setting": "[6]", "value": "weaker activity on the abovementioned delayed hypersensitivity reaction to red blood corpuscles of sheep, at doses of 0.1 mg/kg to 10 mg/kg, administered orally"}, {"measurement": "Activity in the test for cells forming lysis areas", "setting": "[7]", "value": "strong activity according to the abovementioned test for cells forming lysis areas, at a dose of 100 mg/kg, administered orally"}, {"measurement": "Stimulant effects (overall)", "setting": "CNS; conclusion of the tests", "value": "stimulant effects"}, {"measurement": "α-adrenergic stimulant effects (overall)", "setting": "CNS; conclusion of the tests", "value": "effects showing peripheral α-adrenergic stimulation"}, {"measurement": "Antidepressant effects (overall)", "setting": "CNS; conclusion of the tests, dihydrochloride", "value": "good antidepressant; also recorded: antidepressant effects"}, {"measurement": "Peripheral α-adrenergic signs (mydriasis, salivation, lacrimation, exophthalmos)", "setting": "CNS; species and dose not stated, dihydrochloride", "value": "mydriasis"}, {"measurement": "Overall behavior: observed effects (summary)", "setting": "rats [8]", "value": "excitation with hyperreactivity in mice and rats"}, {"measurement": "Stereotype movements (summary)", "setting": "rats [8]", "value": "the presence of stereotype movements in mice and rats"}, {"measurement": "Result in the treatment of depressions", "setting": "man", "value": "good results were obtained by oral administration in the treatment of depressions at a daily dose of -0 mg"}, {"measurement": "Period of immobility due to despair", "setting": "mice [9]", "value": "a reduction in the period of immobility"}, {"measurement": "Femoral flow", "setting": "dogs; anesthetized dog, intravenous, additional 10 mg/kg", "value": "caused an increase in the femoral flow"}, {"measurement": "Effect on hypertension induced by norepinephrine", "setting": "dogs; anesthetized dogs", "value": "distinctly increases the hypertension induced by norepinephrine"}, {"measurement": "Effects of isoprenaline (not further specified)", "setting": "dogs; anesthetized dogs", "value": "does not modify the effects of isoprenaline"}, {"measurement": "Rectal temperature", "setting": "dogs; anesthetized dogs", "value": "The rectal temperature rises gradually"}, {"measurement": "Skin temperature", "setting": "dogs; anesthetized dogs", "value": "a large increase in the skin temperature"}, {"measurement": "Blood pressure", "setting": "dogs; [17]", "value": "No action was observed on the blood pressure"}, {"measurement": "Femoral flow", "setting": "dogs; [17]", "value": "No action was observed on the blood pressure, the femoral flow and the vertebral flow"}, {"measurement": "Heart rate", "setting": "dogs; [17]", "value": "slight tachycardiac effect at 20 mg/kg"}, {"measurement": "Vertebral flow", "setting": "dogs; [17]", "value": "No action was observed on the blood pressure, the femoral flow and the vertebral flow"}, {"measurement": "Effect on stereotypies induced by amphetamine", "setting": "rats [10]", "value": "potentiation of the stereotypies"}, {"measurement": "Duration of the sleep induced by barbital", "setting": "mice [11]", "value": "a reduction in the duration of the sleep induced by barbital"}, {"measurement": "Motor recovery of mice after hypobaric hypoxia", "setting": "mice [12]", "value": "improvement in the motor recovery"}, {"measurement": "Motor activity of mice accustomed to their enclosure", "setting": "mice [13]", "value": "resumption in the motor activity of mice accustomed to their enclosure"}, {"measurement": "Effect on stereotypies induced by apomorphine", "setting": "rats [14]", "value": "potentiation of the stereotypies"}, {"measurement": "Effect on hypothermia induced by reserpine", "setting": "mice [15]", "value": "antagonism of the hypothermia"}, {"measurement": "Effect on ptosis induced by reserpine", "setting": "mice [15]", "value": "antagonism of the ptosis induced by reserpine"}, {"measurement": "Overall behavior: observed effects (summary)", "setting": "mice [16]", "value": "excitation with hyperreactivity in mice and rats"}, {"measurement": "Stereotype movements (summary)", "setting": "mice [16]", "value": "the presence of stereotype movements in mice and rats"}]}]}
